# Source: paper PMC7580997 (Journal of medicinal chemistry, 2019)
# Tests used:
# Plasma stability = assay type: in vitro ADME; conditions: mouse plasma 80% in PBS pH 7.4, 37 °C, 200 μM
# A549 cells = test: IncuCyte S3 Caspase-3/7 apoptosis assay, A549; assay type: cell-based; conditions: nanomolar concentration
# HA-BIR3 of XIAP = HA-BIR3 of XIAP (Homo sapiens, UniProt P98170); test: Western blot; assay type: cell-based; conditions: HEK293T, 10 μM, 6 h
# SK-MEL-28 cells = test: IncuCyte S3 Caspase-3/7 apoptosis assay, SK-MEL-28; assay type: cell-based, human; conditions: SK-MEL-28, co-treatment with TNFα, nanomolar concentration
# [1] = Solubility and chemical stability in aqueous buffer by 1H 1D NMR; assay type: physicochemical; conditions: aqueous buffer pH = 7.5, T = 25 °C
# BIR3 domain of cIAP1 = BIR3 domain of cIAP1 (Homo sapiens, UniProt Q13490); test: LC-MS of protein-compound covalent adduct, cIAP1-BIR3
# Chain of BIR3 domain of cIAP1 (Q13490 258-363 limits assumed): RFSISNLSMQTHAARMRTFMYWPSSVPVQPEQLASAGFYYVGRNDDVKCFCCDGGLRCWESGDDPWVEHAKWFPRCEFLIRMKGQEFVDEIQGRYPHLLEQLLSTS
# Chain of HA-BIR3 of XIAP (P98170 253-347 limits assumed): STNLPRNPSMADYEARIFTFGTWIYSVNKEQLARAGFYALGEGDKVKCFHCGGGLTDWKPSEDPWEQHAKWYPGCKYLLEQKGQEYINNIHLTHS
Compound,plasma stability t1/2 (Plasma stability),induction of apoptosis by co-treatment with TNFα (A549 cells),stabilization of HA-BIR3 in cell (western blot band intensity) (HA-BIR3 of XIAP),induction of apoptosis by co-treatment with TNFα (SK-MEL-28 cells),solubility in aqueous buffer (soluble up to) [1],mass increase of cIAP1-BIR3 (covalent adduct) (BIR3 domain of cIAP1)
CN[C@@H](C)C(=O)N[C@H]1CN(C(=O)CC(C)C)CC[C@H]2CC[C@@H](C(=O)NC(c3ccccc3)c3ccccc3)N2C1=O [AT406],similar,Time- and dose-dependent apoptosis was restored,stabilized the BIR3 domain,Time- and dose-dependent apoptosis was restored,similar,–
"CN[C@@H](C)C(=O)N[C@@H](Cc1ccc(OS(=O)(=O)F)cc1)C(=O)N1CCC[C@H]1C(=O)N[C@@H]1CCc2c(F)cccc21 [Compound 1, 4-((S)-3-((S)-2-(((R)-4-fluoro-2,3-dihydro-1-H-inden-1-yl)carbamoyl)pyrrolidin-1yl)-2-((S)-2-(methylamino)propanamido)-3-oxopropyl)phenyl sulfurofluoridate]",–,–,–,–,–,no increase in mass
CN[C@@H](C)C(=O)N[C@H](C(=O)N1CCC[C@H]1c1nc(C(=O)c2ccc(F)cc2)cs1)C1CCCCC1 [LCL161],similar,Time- and dose-dependent apoptosis was restored,stabilized the BIR3 domain,Time- and dose-dependent apoptosis was restored,similar,–
